Assay results as given in patent publication US20200289482A1, “CYSTIC FIBROSIS TRANSMEMBRANE CONDUCTANCE REGULATOR MODULATORS FOR TREATING AUTOSOMAL DOMINANT POLYCYSTIC KIDNEY DISEASE” (The Johns Hopkins University, priority 2017, published 2020).

Experiments:
[1] = system: Pkd1^fl/fl; Pax8^rtTA; TetO-cre mice; experiment: Cyst growth and renal function in Pkd1 knockout mice treated with VX-809; type: in vivo, mouse
Procedure: (FIG. 1A) Representative images of postnatal day (PND) 21 kidney sections from DMSO- and VX-809-treated mice. Significant reductions occurred in (FIG. 1B) cyst index, (FIG. 1C) kidney weight, and (FIG. 1D) kidney-to-body weight ratio. […] Methods: The total kidney area and total cystic area were measured with ImageJ (provided by NIH). Cystic index=100× (total cystic area/total kidney area) and is expressed as a percentage. Columns represent means±standard error (SEM) for DMSO (vehicle)-treated (n=4-5) and VX-809 mice. *P<0.05; **P<0.01 (for all graphs). Statistical analysis was performed using an unpaired two-tailed Student's t-test;
When treated with doxycycline, these mice express Cre, causing knockout of PC1 (18). […] The dosage of VX-809 injected was lower than the human pediatric dose, which is 500 mg of Lumacaftor per day; the adult dose is 800 mg/day.
Mouse strain and treatment. Pkd1^fl/fl; Pax8^rtTA; TetO-cre mice on a C57BL/6 background (61) were provided by the Baltimore PKD Center. Mice of both sexes were used in this study. Mice were injected IP with doxycycline (Sigma, # D9891) ([…]) on postnatal day 11 (PND11), PND12, and PND13 to produce very rapid and aggressive cyst growth (18,19). On PND21, the mice were euthanized.

[2] = system: cAMP in PC1 conditional knockout mouse kidneys; experiment: cAMP levels in mouse kidney tissue; type: in vivo; settings: kidney samples from mice of FIG. 1 (VX-809 30 mg/kg)
Procedure: FIG. 4A, FIG. 4B, FIG. 4C, FIG. 4D, and FIG. 4E show (FIG. 4A-FIG. 4B) cAMP levels are reduced by VX-809. (FIG. 4A) cAMP levels in mouse tissue were reduced by VX-809. The kidney samples (n=6) analyzed were taken from those depicted in FIG. 1. (FIG. 4B) Confluent PN and PH cells were treated with VX-809 (10 μM) or DMSO for 16 h and then treated with forskolin (100 μM) for 30 min before the cells were harvested for the assay. Columns represent means±SEM. Statistical analysis was performed using a two-tailed Student's t-test. Each set of data is from three individual wells; Note that resting cAMP is greater in PN vs PH cells as previously shown (25). Also note that forskolin caused a large increase in cAMP. […] The data were analyzed by non-parametric t-test. […]
It has been shown previously in both animal and cell culture models of ADPKD that cells lacking functional PC1 have elevated cAMP levels when compared to normal (24). To assess the effect of CFTR correctors, cAMP activity was measured in PC1 conditional knockout mouse kidneys and in PN cells that were either left untreated or treated with VX-809. […]
Confluent cells were treated with VX-809 (10 μM) or DMSO for 16 h before being harvested for assay. Cyclic AMP levels were measured with a direct cAMP Enzyme Immunoassay Kit (Sigma, # CA200) according to the manufacturer's protocol. The results are expressed as pmole/ml. […]

AC6 = experiment: Western blot of adenylyl cyclase 6 expression; type: cell-based, mouse; settings: PN cells treated with VX-809
Procedure: FIG. 4A, FIG. 4B, FIG. 4C, FIG. 4D, and FIG. 4E show (FIG. 4A-FIG. 4B) cAMP levels are reduced by VX-809. (FIG. 4A) cAMP levels in mouse tissue were reduced by VX-809. The kidney samples (n=6) analyzed were taken from those depicted in FIG. 1. (FIG. 4B) Confluent PN and PH cells were treated with VX-809 (10 μM) or DMSO for 16 h and then treated with forskolin (100 μM) for 30 min before the cells were harvested for the assay. Columns represent means±SEM. Statistical analysis was performed using a two-tailed Student's t-test. Each set of data is from three individual wells; Note that resting cAMP is greater in PN vs PH cells as previously shown (25). Also note that forskolin caused a large increase in cAMP. A smaller increase occurred with IBMX. However, the increase induced by forskolin alone was similar to that by IBMX plus forskolin. […] (FIG. 4C, FIG. 4D, and FIG. 4E) Adenylyl cyclase expression. (FIG. 4C) Western blot showing the expression of adenylyl cyclase (AC) 6 and AC3 in treated and control PN cells. (FIG. 4D-FIG. 4E) Columns represent means±SEM of the AC3 and AC6 expression. The data were analyzed by non-parametric t-test. The experiment was repeated four times. For all graphs, *P<0.05, **P<0.01, and ***P<0.001;
There are two classes of adenylyl cyclases that are regulated by intracellular Ca^2+: one class is activated, and the other inhibited. […]

GADD153 = experiment: Western blot of ER stress marker GADD153 in kidney tissue; type: in vivo, mouse; settings: cyst containing mice, VX-809 30 mg/kg BW
Procedure: FIG. 11A. FIG. 11B, FIG. 11C, FIG. 11D, and FIG. 11E show expression of ER stress markers GRP78, ErO1, and GADD in Pkd1^−/− mice treated with VX-809. (FIG. 11A & FIG. 11D) Representative Western blot images of GRP78, ErO1, and GADD in lysates of kidney tissue from no cyst induced (ND), cyst induced with doxycycline (D) or cyst induced pkd−/− mice treated with VX-809 (D+VX-809) 30 mg/kg BW. (FIG. 11B, FIG. 11C and FIG. 11E) Columns represent averages±standard errors of GRP78, ErO1, and GADD153 expression. Data were analyzed by non-parametric t-test. n=4 for each treated and control groups. Black lines between lanes represent representative experiments from the same gel but loaded in different lanes. **P<0.01, ***P<0.001;
Given that VX-809 alters an ensemble of Hsps, it was evaluated whether VX-809 alters proteins associated with ER stress. To address this question, the levels of three ER stress-associated proteins were measured, 78-kDa glucose-regulated protein (GRP78), ER oxidoreductin 1 (Ero1) and DNA damage-inducible protein 3 (GADD153), also known as C/EBP homologous protein (CHOP) (37). The results are depicted in FIG. 11 show no changes in GRP78 or Ero1 in response to VX-809.

[3] = VX-809 30 mg/kg IP daily PND10 to PND20 vs DMSO-treated mice
[4] = VX-809 30 mg/kg IP daily PND10 to PND20 vs control mice

## lumacaftor [VX-809]
[1]; VX-809 30 mg/kg IP daily PND10 to PND20, treated vs untreated groups
  overall body weight: no difference in overall body weight
[1]; [3]
  blood urea nitrogen (BUN): lowered blood urea nitrogen (BUN)
  creatinine: lowered
[1]; VX-809 30 mg/kg IP daily PND10 to PND20 vs DMSO, doxycycline-induced cysts, PND21
  less cyst growth (cyst index): ~60.4%
[1]; [4]
  Kidney weight: lower than those of the control mice
  kidney-to-body weight ratio: lower than those of the control mice
[2]
  cAMP levels in mouse kidneys: significantly decreased the cAMP levels
AC6
  AC6 regulation (expression): not AC6
GADD153
  GADD153 expression (Western blot): equally dramatic reduction in GADD153
